What was measured:
[1] = biological target: T1, human vitamin D-binding protein (hDBP) (Homo sapiens, UniProt P02774); assay: Relative Competitive Index assay, vitamin D-binding protein
T1 sequence (P02774 17-474): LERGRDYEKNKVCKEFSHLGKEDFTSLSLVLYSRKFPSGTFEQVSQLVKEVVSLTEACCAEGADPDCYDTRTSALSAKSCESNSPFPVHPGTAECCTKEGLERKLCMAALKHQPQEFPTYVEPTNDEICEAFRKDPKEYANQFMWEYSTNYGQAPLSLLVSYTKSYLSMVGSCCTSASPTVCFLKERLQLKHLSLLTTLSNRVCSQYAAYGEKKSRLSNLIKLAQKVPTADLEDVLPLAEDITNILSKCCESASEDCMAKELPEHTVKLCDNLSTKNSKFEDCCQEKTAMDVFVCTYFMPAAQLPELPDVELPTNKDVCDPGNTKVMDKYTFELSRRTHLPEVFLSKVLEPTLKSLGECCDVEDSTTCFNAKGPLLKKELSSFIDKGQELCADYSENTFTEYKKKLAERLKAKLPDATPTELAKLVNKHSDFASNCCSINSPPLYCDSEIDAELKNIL
From the text: The compared analogs are 14α,15α-methano-1α,25(OH)2 D3 (LO), 22(m(dimethylhydroxymethyl)phenyl)-23,24,25,26,27-pentanor-1α- OH-D3 (EV) and (22R)-1,25(OH)2 -22,23,diene-D3 (HR), all conformationally flexible genomic agonists. By definition the RCI for 1α,25(OH)2 D3 is set to 100%. The data seen in FIG. 7 represent the mean of three determinations.
Vitamin D-Binding Protein Assay Relative Competitive Index
This example describes a Relative Competitive Index Assay used for determination of analogs binding affinity to vitamin D-binding protein.
Phase separation was then obtained by the addition of 0.5 ml of cold dextran-coated charcoal.
The data was plotted as [competitor]/[[^3 H]25(OH)D3 ] vs. 1/[fraction bound]. The RCI was calculated as [slope of competitor]/[slopefor 25(OH)D3 ]×100. Results are seen in FIG. 7. Although each analog was assayed in competition with [^3 H]25(OH)D3, the data are expressed as relative to the binding of 1α,25(OH)2 D3, with its RCI set to 100.

[2] = test system: vitamin D-deficient chick; assay: Intestinal Ca2+ absorption (ICA) in vitamin D-deficient chick; type: in vivo; conditions: i.m.
[3] = test system: vitamin D-deficient chick; assay: Bone Ca2+ mobilizing activity (BCM) in vitamin D-deficient chick; type: in vivo; conditions: vitamin D-deficient chick, i.m.
VDRnuc = assay: Genomic response (summary classification); conditions: Yes/No, Tables 1 and 6
VDRmem = assay: Rapid response (summary classification); conditions: Yes/No, Tables 1 and 6

C=C1/C(=C\C=C2/CCC[C@]3(C)[C@@H]([C@H](C)CCCC(C)(C)O)C[C@@H]4C[C@@]243)C[C@@H](O)C[C@@H]1O [LO]
Binding to DBP relative to 1α,25(OH)2 D3 (RCI, FIG. 7) ([1]; 1α,25(OH)2 D3 = 100%, mean of three determinations): 60%
Vit D Binding Protein (RCI) ([1]; RCI of 1α,25(OH)2 D3 set to 100, 4° C., pH 7.4): 60
DBP binding (in words) ([1]; compared with 1α,25(OH)2 D3): lower than 1α,25(OH)2 D3
Classic Vit D Responses ICA ([2]; relative to 100 pmol 1α,25(OH)2 D3 = 100%, 12 h before assay): 30%
ICA (in words) ([2]; vitamin D-deficient chick): reasonable stimulator of intestinal Ca^2+ absorption (ICA)
BCM (in words) [3]: highly effective stimulator of bone Ca^2+ mobilizing activity (BCM)
Genomic Response (VDRnuc): Yes
Rapid Response (VDRmem): Yes
